The CheMixHub viscosity set
± gives the uncertainty stated by the source.

Test: xn = mol fraction of the nth substance listed

C1CCC2=[NH+]CCCN2CC1.c1nc[n-]n1 + CO
303.15 K, 100 kPa
Conditions | viscosity [mPa·s]
x1 = 0.1001 | 5.23 ± 0.11
x1 = 0.2 | 8.57 ± 0.19
x1 = 0.2999 | 24.53 ± 0.56
x1 = 0.4003 | 57.03 ± 1.3
x1 = 0.4989 | 104.5 ± 3.5
x1 = 0.6002 | 205.4 ± 11
x1 = 0.7008 | 366.4 ± 27
x1 = 0.7993 | 555.9 ± 49
x1 = 0.9002 | 882.9 ± 93

CCCCCOC(C)=O + CC(=O)O
viscosity [mPa·s], 101 kPa
Conditions | x1 = 0.0945 | x1 = 0.2018 | x1 = 0.3035 | x1 = 0.4048 | x1 = 0.4599 | x1 = 0.5117 | x1 = 0.6074 | x1 = 0.6957 | x1 = 0.7878 | x1 = 0.8912
298.15 K | 1.055 ± 0.01 | 1.049 ± 0.01 | 0.994 ± 0.01 | 0.978 ± 0.01 | 1.002 ± 0.01 | 1.006 ± 0.01 | 0.98 ± 0.01 | 0.974 ± 0.01 | 0.917 ± 0.009 | 0.881 ± 0.009
313.15 K | 0.853 ± 0.008 | 0.831 ± 0.008 | 0.799 ± 0.008 | 0.781 ± 0.008 | 0.797 ± 0.008 | 0.798 ± 0.008 | 0.777 ± 0.008 | 0.772 ± 0.008 | 0.734 ± 0.007 | 0.708 ± 0.007

C=CC(=O)OCCCC + CCCCCCCCCCO
viscosity [mPa·s], 101.3 kPa
Conditions | x1 = 0.0646 | x1 = 0.1907 | x1 = 0.2493 | x1 = 0.3612 | x1 = 0.4732 | x1 = 0.665 | x1 = 0.756 | x1 = 0.8402 | x1 = 0.9227 | x1 = 0.9615
298.15 K | 9.073 ± 0.35 | 5.873 ± 0.25 | 4.998 ± 0.22 | 3.536 ± 0.16 | 2.535 ± 0.12 | 1.653 ± 0.078 | 1.303 ± 0.063 | 1.07 ± 0.053 | 0.905 ± 0.045 | 0.843 ± 0.043
308.15 K | 6.488 ± 0.27 | 4.404 ± 0.19 | 3.679 ± 0.16 | 2.762 ± 0.12 | 2.073 ± 0.096 | 1.301 ± 0.063 | 1.115 ± 0.055 | 0.897 ± 0.045 | 0.781 ± 0.04 | 0.723 ± 0.038

CC(C)CO + C1CCCCC1
303.15 K, 101.33 kPa
Conditions | viscosity [mPa·s]
x2 = 0.1485 | 1.976 ± 0.2
x2 = 0.2985 | 1.513 ± 0.15
x2 = 0.4515 | 1.185 ± 0.12
x2 = 0.6051 | 0.962 ± 0.097
x2 = 0.7417 | 0.839 ± 0.084
x2 = 0.8981 | 0.762 ± 0.076

O=C1CCCN1C1CCCCC1 + O=C1CCCN1
298.15 K, 100 kPa
Conditions | viscosity [mPa·s]
x1 = 0.0107 | 13.4 ± 0.18
x2 = 0.0201 | 10.5 ± 0.13
x2 = 0.0289 | 10.56 ± 0.13
x2 = 0.0403 | 10.66 ± 0.13
x2 = 0.0491 | 10.72 ± 0.13
x2 = 0.0694 | 10.86 ± 0.14
x2 = 0.08 | 10.94 ± 0.14
x2 = 0.0913 | 11.02 ± 0.14
x2 = 0.0973 | 11.06 ± 0.14
x2 = 0.1019 | 11.11 ± 0.14
x2 = 0.1982 | 11.73 ± 0.15
x2 = 0.2954 | 12.31 ± 0.16
x2 = 0.3091 | 12.44 ± 0.16
x2 = 0.389 | 12.77 ± 0.17
x2 = 0.4916 | 13.18 ± 0.17
x2 = 0.602 | 13.5 ± 0.18
x2 = 0.7053 | 13.64 ± 0.18
x2 = 0.8042 | 13.66 ± 0.18
x2 = 0.902 | 13.66 ± 0.18
x2 = 0.9031 | 13.63 ± 0.18
x2 = 0.9108 | 13.62 ± 0.18
x2 = 0.9153 | 13.63 ± 0.18
x2 = 0.9306 | 13.59 ± 0.18
x2 = 0.9503 | 13.56 ± 0.18
x2 = 0.9597 | 13.54 ± 0.18
x2 = 0.9696 | 13.49 ± 0.18
x2 = 0.979 | 13.45 ± 0.18
